Reference: ChEMBL document CHEMBL5465560, “Selectivity Literature for EUbOPEN Chemogenomic Library” (2024)

Legend:
[1] = target: Mitogen-activated protein kinase 10 (Homo sapiens, UniProt P53779); assay: Selectivity interaction (Kinase panel (Z-LYTE Assay)) EUB0001632a MAPK10; conditions: at 10 µM
[2] = target: Serine/threonine-protein kinase SIK3 (Homo sapiens) (UniProt Q9Y2K2); assay: Selectivity interaction (KinomeScan (DiscoverX)) EUB0000666a SIK3; conditions: at 10 µM
[3] = target: Tyrosine-protein kinase Yes (Homo sapiens) (UniProt P07947); assay: Selectivity interaction (KinomeScan (DiscoverX)) EUB0000666a YES1; conditions: at 10 µM
Tyrosine-protein kinase Yes (Homo sapiens), sequence (P07947 2-543 limits assumed): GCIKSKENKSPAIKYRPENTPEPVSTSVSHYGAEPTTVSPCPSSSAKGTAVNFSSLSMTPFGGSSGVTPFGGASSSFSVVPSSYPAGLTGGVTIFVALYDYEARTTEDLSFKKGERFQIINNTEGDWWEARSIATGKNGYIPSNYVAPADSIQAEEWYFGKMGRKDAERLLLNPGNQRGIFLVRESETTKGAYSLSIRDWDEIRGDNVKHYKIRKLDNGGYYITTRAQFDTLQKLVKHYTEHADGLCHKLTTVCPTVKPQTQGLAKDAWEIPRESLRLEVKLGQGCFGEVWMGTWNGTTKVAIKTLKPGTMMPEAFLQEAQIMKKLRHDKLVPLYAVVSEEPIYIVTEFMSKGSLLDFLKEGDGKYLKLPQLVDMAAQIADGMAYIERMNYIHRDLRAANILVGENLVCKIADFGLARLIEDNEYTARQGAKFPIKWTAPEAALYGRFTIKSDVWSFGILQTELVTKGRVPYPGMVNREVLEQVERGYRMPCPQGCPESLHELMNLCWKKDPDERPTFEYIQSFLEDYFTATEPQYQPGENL

[4] = system: Epidermal growth factor receptor (Homo sapiens), P00533 [UNDEFINED MUTATION]; assay: Selectivity interaction (KinomeScan (DiscoverX)) EUB0000666a EGFR; conditions: at 10 µM
[5] = target: cAMP-dependent protein kinase catalytic subunit alpha (Homo sapiens, UniProt P17612); conditions: at 10 µM
[6] = target: T1, Inhibitor of nuclear factor kappa-B kinase subunit alpha (Homo sapiens) (UniProt O15111)
T1 sequence (whole entry): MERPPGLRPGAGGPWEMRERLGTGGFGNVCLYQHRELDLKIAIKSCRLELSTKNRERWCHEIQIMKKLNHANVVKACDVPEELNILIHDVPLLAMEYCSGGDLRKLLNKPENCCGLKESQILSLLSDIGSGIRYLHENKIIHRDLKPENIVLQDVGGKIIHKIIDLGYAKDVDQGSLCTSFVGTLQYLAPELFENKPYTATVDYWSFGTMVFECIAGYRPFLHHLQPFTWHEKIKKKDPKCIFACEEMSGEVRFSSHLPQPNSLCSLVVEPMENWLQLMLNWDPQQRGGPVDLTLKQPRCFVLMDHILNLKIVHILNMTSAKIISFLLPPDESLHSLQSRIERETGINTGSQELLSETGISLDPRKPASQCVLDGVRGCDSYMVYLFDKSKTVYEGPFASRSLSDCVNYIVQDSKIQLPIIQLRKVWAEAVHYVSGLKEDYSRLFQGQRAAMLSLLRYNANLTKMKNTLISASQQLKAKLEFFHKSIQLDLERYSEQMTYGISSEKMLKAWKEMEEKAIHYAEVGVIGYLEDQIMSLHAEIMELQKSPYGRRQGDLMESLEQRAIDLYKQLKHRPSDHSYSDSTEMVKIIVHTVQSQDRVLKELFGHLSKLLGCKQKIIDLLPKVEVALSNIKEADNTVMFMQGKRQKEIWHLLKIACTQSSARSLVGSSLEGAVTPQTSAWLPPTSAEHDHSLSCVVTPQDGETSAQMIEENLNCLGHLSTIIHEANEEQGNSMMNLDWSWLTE

[7] = target: T2, Calcium/calmodulin-dependent protein kinase type IV (Homo sapiens) (UniProt Q16566); assay: Selectivity interaction (Millipore kinase profiler) EUB0000124b CAMK4; conditions: at 10 µM
T2 sequence (whole entry): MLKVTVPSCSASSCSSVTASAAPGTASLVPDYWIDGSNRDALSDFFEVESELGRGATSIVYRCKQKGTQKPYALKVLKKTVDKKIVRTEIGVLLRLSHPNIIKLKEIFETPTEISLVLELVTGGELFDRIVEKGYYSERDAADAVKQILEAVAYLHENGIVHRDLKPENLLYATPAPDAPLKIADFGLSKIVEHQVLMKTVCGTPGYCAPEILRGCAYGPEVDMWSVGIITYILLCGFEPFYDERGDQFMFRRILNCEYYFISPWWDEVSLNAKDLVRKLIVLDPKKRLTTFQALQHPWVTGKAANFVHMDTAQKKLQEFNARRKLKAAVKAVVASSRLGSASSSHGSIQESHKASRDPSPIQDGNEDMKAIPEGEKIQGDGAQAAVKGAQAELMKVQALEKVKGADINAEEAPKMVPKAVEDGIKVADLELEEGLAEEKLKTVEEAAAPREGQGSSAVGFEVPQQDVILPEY

[8] = target: T3, Ephrin type-B receptor 4 (Homo sapiens) (UniProt P54760); assay: Selectivity interaction (KinomeScan (DiscoverX)) EUB0001619a EPHB4; conditions: at 1 µM
T3 sequence (whole entry): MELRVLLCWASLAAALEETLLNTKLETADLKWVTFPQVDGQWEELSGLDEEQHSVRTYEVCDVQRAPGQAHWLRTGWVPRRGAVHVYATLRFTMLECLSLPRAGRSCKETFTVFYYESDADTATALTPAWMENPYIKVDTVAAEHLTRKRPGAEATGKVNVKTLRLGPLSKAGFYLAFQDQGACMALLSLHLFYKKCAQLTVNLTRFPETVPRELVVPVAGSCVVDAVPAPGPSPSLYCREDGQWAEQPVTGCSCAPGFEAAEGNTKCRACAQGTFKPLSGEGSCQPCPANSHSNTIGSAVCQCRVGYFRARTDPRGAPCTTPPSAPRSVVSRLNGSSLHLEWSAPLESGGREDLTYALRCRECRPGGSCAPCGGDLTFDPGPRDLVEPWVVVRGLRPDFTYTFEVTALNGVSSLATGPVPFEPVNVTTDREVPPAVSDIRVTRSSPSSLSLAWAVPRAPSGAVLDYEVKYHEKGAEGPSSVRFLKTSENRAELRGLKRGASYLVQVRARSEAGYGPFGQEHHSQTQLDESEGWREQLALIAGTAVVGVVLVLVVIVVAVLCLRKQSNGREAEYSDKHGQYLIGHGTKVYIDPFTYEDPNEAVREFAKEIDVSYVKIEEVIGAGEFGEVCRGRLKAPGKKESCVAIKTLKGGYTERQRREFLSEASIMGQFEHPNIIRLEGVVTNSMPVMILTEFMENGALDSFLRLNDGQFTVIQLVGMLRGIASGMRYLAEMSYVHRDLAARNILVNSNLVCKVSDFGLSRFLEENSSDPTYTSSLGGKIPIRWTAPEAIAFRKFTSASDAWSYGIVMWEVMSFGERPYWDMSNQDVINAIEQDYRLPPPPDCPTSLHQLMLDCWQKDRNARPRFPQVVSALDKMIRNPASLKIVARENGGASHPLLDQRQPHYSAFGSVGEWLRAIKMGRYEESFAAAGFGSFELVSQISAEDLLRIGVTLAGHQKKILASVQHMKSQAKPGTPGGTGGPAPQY

[9] = target: Mitogen-activated protein kinase kinase kinase 9 (Homo sapiens) (UniProt P80192); assay: Selectivity interaction (Kinase panel (literature)) EUB0001199aCl MAP3K9; conditions: at 1 µM
[10] = target: Ephrin type-A receptor 7 (Homo sapiens) (UniProt Q15375); assay: Selectivity interaction (KinomeScan (DiscoverX)) EUB0000607a EPHA7; conditions: at 10 µM
Ephrin type-A receptor 7 (Homo sapiens), sequence (Q15375 28-998 limits assumed): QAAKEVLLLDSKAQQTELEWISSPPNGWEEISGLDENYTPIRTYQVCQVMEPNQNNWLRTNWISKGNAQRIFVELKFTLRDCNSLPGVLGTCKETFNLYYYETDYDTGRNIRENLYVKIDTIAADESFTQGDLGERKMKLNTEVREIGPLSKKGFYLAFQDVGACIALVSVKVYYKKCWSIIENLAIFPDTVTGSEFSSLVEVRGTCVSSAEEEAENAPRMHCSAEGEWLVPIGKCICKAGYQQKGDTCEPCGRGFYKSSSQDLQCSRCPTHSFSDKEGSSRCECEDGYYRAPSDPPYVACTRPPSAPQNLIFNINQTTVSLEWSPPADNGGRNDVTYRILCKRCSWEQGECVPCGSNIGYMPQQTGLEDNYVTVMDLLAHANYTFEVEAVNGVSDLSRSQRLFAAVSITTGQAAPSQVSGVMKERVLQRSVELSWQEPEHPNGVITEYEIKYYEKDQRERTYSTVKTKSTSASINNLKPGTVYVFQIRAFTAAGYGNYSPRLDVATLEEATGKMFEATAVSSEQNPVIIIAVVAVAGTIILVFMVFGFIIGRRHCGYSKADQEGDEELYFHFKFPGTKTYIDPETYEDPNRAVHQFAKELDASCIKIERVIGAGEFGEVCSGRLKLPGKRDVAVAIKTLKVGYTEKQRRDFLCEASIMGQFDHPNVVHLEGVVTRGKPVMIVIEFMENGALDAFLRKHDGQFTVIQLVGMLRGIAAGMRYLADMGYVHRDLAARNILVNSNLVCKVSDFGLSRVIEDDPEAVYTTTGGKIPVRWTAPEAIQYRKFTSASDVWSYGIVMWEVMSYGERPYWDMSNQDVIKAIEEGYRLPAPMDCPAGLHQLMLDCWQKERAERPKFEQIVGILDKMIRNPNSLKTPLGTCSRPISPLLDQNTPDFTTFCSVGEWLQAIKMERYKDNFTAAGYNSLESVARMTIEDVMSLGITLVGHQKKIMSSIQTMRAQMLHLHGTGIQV

[11] = target: Serine/threonine-protein kinase 38-like (Homo sapiens) (UniProt Q9Y2H1); assay: Selectivity interaction (ActivX KiNativ screen (kinase selectivity in THP-1 cell lysates)) EUB0000639a STK38L; format: subcellular; conditions: lysate, at 1 µM
Serine/threonine-protein kinase 38-like (Homo sapiens), sequence (Q9Y2H1 2-464 limits assumed): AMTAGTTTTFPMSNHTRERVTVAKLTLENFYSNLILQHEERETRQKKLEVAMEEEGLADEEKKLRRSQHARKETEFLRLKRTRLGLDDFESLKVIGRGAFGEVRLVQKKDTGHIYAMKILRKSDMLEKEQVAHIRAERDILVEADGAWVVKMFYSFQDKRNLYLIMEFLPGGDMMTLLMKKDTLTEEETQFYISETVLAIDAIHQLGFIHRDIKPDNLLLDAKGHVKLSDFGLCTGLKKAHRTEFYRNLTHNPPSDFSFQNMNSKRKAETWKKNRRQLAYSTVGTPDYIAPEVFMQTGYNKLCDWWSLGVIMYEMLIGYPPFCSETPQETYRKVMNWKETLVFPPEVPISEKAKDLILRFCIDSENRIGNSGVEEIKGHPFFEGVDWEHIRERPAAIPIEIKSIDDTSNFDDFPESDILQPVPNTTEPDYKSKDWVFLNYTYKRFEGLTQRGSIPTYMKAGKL

[12] = target: Mitogen-activated protein kinase kinase kinase kinase 5 (Homo sapiens) (UniProt Q9Y4K4); assay: Selectivity interaction (Kinase panel (Invitrogen)) EUB0000639a MAP4K5; conditions: at 200 nM
Mitogen-activated protein kinase kinase kinase kinase 5 (Homo sapiens), sequence (Q9Y4K4 whole entry, looked up): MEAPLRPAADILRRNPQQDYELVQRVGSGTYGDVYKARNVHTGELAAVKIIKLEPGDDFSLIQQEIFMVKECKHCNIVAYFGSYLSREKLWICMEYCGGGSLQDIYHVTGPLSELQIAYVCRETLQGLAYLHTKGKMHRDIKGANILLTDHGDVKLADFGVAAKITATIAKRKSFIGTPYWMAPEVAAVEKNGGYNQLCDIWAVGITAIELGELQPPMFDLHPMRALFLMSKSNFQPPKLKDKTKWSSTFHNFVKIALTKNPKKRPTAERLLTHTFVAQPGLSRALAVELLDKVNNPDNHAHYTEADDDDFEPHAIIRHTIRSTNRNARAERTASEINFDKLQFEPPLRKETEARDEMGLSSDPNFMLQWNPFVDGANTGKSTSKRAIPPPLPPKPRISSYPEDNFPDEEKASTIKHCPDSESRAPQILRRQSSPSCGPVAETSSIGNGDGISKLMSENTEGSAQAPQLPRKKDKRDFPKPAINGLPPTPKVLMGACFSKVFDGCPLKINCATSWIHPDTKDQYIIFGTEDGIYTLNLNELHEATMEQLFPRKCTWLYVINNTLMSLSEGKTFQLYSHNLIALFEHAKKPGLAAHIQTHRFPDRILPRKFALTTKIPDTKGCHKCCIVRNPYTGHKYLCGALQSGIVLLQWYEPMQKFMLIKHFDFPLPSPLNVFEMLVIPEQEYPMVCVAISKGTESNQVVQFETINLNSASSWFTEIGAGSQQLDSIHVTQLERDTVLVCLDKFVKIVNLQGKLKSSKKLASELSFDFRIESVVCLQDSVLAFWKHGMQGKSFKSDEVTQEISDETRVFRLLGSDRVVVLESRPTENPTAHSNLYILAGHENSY

[13] = target: Casein kinase II subunit alpha (Homo sapiens, UniProt P68400); assay: Selectivity interaction (KinomeScan (DiscoverX)) EUB0000655a CSNK2A1; conditions: at 10 µM
Casein kinase II subunit alpha, sequence (P68400 whole entry, looked up): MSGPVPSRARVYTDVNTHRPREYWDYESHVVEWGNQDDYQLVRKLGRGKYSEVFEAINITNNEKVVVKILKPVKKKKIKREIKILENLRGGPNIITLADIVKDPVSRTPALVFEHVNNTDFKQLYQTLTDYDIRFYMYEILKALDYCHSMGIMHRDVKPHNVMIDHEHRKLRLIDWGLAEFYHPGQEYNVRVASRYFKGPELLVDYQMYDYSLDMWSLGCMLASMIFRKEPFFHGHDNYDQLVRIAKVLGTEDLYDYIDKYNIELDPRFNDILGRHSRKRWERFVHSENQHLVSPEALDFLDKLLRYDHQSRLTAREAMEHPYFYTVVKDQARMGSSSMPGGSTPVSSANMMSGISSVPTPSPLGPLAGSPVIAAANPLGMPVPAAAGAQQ

Serine/threonine-protein kinase SIK3 (Homo sapiens), sequence (Q9Y2K2 whole entry, looked up): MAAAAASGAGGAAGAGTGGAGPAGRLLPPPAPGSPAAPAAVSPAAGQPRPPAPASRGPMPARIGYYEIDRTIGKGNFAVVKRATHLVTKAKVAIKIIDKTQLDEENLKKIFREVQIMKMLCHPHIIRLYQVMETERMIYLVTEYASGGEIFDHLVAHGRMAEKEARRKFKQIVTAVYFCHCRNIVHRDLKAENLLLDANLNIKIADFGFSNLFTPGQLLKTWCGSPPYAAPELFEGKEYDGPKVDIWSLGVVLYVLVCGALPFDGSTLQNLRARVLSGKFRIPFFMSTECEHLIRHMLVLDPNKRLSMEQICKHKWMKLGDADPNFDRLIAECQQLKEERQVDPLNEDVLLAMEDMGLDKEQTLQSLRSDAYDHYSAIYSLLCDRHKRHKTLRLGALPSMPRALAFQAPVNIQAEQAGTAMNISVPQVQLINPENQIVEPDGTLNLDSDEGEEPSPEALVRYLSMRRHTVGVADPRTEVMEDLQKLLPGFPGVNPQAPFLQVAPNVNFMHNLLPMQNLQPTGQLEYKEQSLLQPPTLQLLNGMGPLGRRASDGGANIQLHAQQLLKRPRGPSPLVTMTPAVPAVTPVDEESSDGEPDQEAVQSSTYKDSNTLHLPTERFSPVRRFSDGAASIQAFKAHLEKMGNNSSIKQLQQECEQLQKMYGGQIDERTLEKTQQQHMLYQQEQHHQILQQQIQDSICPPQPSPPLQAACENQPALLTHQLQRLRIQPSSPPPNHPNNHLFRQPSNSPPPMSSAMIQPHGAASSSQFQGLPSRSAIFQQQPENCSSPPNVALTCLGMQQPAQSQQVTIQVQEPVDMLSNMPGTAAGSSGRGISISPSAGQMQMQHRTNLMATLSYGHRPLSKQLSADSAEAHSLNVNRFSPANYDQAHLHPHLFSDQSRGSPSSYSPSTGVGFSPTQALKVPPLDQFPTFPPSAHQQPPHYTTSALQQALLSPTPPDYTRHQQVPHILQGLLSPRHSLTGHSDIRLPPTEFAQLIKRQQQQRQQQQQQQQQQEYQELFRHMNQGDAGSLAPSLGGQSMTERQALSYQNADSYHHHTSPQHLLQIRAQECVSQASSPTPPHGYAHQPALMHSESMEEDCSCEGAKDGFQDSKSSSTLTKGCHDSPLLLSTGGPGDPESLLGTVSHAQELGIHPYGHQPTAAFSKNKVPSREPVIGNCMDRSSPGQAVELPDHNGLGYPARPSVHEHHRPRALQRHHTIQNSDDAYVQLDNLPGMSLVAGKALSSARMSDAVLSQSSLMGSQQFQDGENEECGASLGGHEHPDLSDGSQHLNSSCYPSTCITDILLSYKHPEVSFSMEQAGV
Mitogen-activated protein kinase 10, sequence (P53779 whole entry): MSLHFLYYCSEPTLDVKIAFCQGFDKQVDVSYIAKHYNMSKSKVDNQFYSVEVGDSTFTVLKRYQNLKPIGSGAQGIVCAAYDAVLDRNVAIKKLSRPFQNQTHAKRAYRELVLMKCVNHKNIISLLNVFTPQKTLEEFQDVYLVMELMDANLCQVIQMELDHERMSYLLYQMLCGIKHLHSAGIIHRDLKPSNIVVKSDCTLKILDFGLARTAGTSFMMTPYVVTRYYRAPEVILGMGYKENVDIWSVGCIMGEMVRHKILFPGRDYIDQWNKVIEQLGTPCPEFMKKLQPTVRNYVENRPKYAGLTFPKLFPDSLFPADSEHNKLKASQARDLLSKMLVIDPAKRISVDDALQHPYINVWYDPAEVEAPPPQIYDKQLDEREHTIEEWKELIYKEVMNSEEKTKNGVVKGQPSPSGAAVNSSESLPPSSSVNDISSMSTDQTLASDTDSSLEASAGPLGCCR

Cn1cc(-n2cnc3c(NCc4nc5cc(Cl)c(Cl)cc5[nH]4)nc(N4CCOCC4)nc32)cn1
% of control [1]: 3.04%

O=C(NOC[C@H](O)CO)c1ccc(F)c(F)c1Nc1ccc(I)cc1F
% of control [2]: 52%
% of control [3]: 73%
% of control [4]: 51%

Cc1cc([C@@H](C)Nc2ccccc2C(=O)O)c2nc(N3CCOCC3)cc(=O)n2c1 [AZD-6482]
% of control [5]: 100%

Cc1cnc(Nc2ccc(F)cc2Cl)nc1-c1c[nH]c(C(=O)N[C@H](CO)c2cccc(Cl)c2)c1
% of inhibition [6]: 0%

CC(=O)Nc1cccc(-n2c(=O)n(C3CC3)c(=O)c3c(Nc4ccc(I)cc4F)n(C)c(=O)c(C)c32)c1
% of control [7]: 97%

N#Cc1cccc(-c2c[nH]c3ncnc(N4CCOCC4)c23)c1
% of control [8]: 100%

CN1Cc2nccc(-c3cn(C)nc3-c3ccc(F)cc3)c2C1=O
% of inhibition [9]: 2%

CNC(=O)Nc1ccc(-c2nc(N3CC4CCC(C3)O4)c3cnn(C4CCC5(CC4)OCCO5)c3n2)cc1
% of control [10]: 87%

CC[C@@H]1[C@H](F)C(=O)N[C@@H]1COc1nccc2cc(C(N)=O)c(OC)cc12 [ZIMLOVISERTIB]
% of inhibition [11]: 47.8%
% of inhibition [12]: 10%

CN(C)CCOc1ccc(-c2nc(-c3ccncc3)c(-c3ccc4c(c3)CC/C4=N\O)[nH]2)cc1
% of control [13]: 79%
